Experimental data: patent US6147100A, “Pyrrolidine derivatives having phospholipase A2 inhibitory activity” (Shionogi & Co., Ltd., priority 1997, dated 2000)

How the values were obtained:
cPLA2 = molecular target: T1, cPLA2 (Homo sapiens, UniProt P47712); assay: cPLA2 Inhibitory Activity; assay type: biochemical; conditions: 1-palmitoyl-2-[14C]-arachidonoyl-sn-glycero-3-phosphocholine 2.5 μM, sn-1,2-dioleoylglycerol 1.25 μM; pH 7.5, 15 min at 37° C.
T1 sequence (P47712 1-749): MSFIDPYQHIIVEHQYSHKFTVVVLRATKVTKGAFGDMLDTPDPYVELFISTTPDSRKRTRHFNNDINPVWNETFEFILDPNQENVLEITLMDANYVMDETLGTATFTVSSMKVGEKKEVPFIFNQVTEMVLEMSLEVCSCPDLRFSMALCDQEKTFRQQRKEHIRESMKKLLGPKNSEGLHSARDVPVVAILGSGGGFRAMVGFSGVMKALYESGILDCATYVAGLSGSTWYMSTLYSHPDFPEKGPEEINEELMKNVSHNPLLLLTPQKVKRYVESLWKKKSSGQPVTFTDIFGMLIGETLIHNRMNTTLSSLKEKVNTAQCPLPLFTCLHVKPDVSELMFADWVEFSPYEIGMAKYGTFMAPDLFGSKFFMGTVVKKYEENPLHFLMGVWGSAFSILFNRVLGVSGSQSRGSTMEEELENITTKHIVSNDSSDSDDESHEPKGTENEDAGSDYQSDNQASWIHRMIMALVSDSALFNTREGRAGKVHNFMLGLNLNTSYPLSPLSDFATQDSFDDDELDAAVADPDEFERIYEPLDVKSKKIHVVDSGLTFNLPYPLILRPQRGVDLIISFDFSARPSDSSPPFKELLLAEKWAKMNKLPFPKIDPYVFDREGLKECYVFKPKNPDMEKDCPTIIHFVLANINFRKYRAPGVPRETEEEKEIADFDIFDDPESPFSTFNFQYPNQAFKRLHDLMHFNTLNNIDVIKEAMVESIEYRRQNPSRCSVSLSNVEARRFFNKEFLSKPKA
Experimental: Test Example 1 cPLA2 Inhibitory Activity The compounds of the present invention were tested for the cPLA2 inhibitory activity according to the method disclosed in […]. Roberts, […], and J. E. Putnam, J. Biol. Chem., 1991, 266, 5268-5272 as outlined below. […] The reaction mixture includes 50 mM HEPES buffer (pH 7.5), 1 mM calcium chloride, 150 mM sodium chloride, 0.1 mg/ml bovine serum albumin, and 1.7 mM dithiothreitol. To the reaction mixture was added the compound of the present invention and the substrate solution. The reaction was allowed to start by adding an enzyme and continued for 15 min at 37° C. The fatty acids released by the reaction were extracted by the method described in V. P. Dole, and H. Meinertz, J. Biol. Chem., 1960, 235, 2595-2599 and its radiation activity was measured on a liquid scintillation counter. Control was obtained by conducting the experiment in the same manner except that a compound of the present invention was not added.

[1] = tested on: production of prostaglandin E2 by human fibroblasts; assay: Inhibition of Production of Prostaglandin E2 in Human Fibroblasts (IL-1 stimulation); assay type: cell-based; conditions: Fibroblast; human fibroblasts under stimulation with IL-1
Experimental: Test Example 2 Inhibition of Production of Prostaglandin E2 in Human Fibroblasts.
In order to examine the availability of the composition for inhibiting cytosolic phospholipase A2 (cPLA2) on the cells, the compounds of the present invention were tested for the effect on the production of prostaglandin E2 by human fibroblasts under the stimulation with IL-1 according to the method of J. M. Dayer et al (CACHECTIN/TUMOR NECROSIS FACTOR STIMULATES COLLAGENASE AND PROSTAGLANDIN E2 PRODUCTION BY HUMAN SYNOVIAL CELLS AND DERMAL FIBROBLASTS; J. M. Dayer, B, Beutler and A, Cerami, J. EXP. Med., 1985, 162, 2163-2168.).

Row | IC50 (cPLA2) [nM] | SMILES | IC50 [1] [nM]
1 | 98 | O=C1NC(=O)/C(=C/c2ccc(/C=C/C[C@@H]3C[C@@H](OCc4ccccc4-c4ccccc4)CN3C(=O)c3ccccc3C(=O)c3ccc(F)cc3)cc2)S1 [Compound E-14] | 5600
2 | 280 | O=C1NC(=O)/C(=C/c2ccc(CC[C@@H]3C[C@@H](OCc4ccccc4-c4ccccc4)CN3C(=O)c3ccccc3C(=O)c3ccc(F)cc3)cc2)S1 [Compound E-2] | 1100
3 | 130 | O=C1NC(=S)S/C1=C\c1ccc(NC(=O)[C@@H]2C[C@@H](OCc3ccccc3-c3ccccc3)CN2C(=O)c2ccccc2C(=O)c2ccc(Cl)cc2)cc1 [Compound B-4] | 5600
4 | 71 | O=C1NC(=S)S/C1=C\c1ccc(C(=O)NC[C@@H]2C[C@@H](SCc3ccccc3-c3ccccc3)CN2C(=O)c2ccccc2C(=O)c2ccc(F)cc2)cc1 [Compound I-6] | 260
5 | 130 | CN(Cc1ccccc1-c1ccccc1)[C@@H]1C[C@@H](C(=O)Nc2ccc(/C=C3\SC(=O)NC3=O)cc2)N(C(=O)c2ccccc2C(=O)c2ccc(F)cc2)C1 [Compound N-2] | 1800
6 | 350 | O=C1NC(=O)/C(=C/c2ccc(/C=C\C[C@@H]3C[C@@H](OCc4ccccc4-c4ccccc4)CN3C(=O)c3ccccc3C(=O)c3ccc(F)cc3)cc2)S1 [Compound E-12] | 5700
7 | 1920 | O=C1NC(=O)/C(=C/c2ccc(C(=O)NC[C@H]3C[C@H](OCc4ccccc4-c4ccccc4)CN3C(=O)c3ccccc3C(=O)c3ccc(F)cc3)cc2)S1 [Compound Q-5] | 1300
8 | 1000 | O=C1NC(=O)/C(=C/c2ccc(C(=O)NC[C@@H]3C[C@H](SCc4ccccc4)CN3C(=O)c3ccccc3C(=O)c3ccccc3)cc2)S1 [Compound I-2] | 660
9 | 84 | O=C1NC(=S)S/C1=C\c1ccc(NC(=O)[C@@H]2C[C@@H](OCc3ccccc3-c3ccccc3)CN2C(=O)c2ccccc2C(=O)c2ccc(F)cc2)cc1 [Compound B-2] | 4000
10 | 1000 | O=C1NC(=O)/C(=C/c2ccc(CCC[C@@H]3C[C@@H](OCc4ccccc4-c4ccccc4)CN3C(=O)c3ccccc3C(=O)c3ccc(F)cc3)cc2)S1 [Compound E-9] | 6500
11 | 1100 | O=C1NC(=O)/C(=C/c2ccc(C=C[C@@H]3C[C@@H](OCc4ccccc4-c4ccccc4)CN3C(=O)c3ccccc3C(=O)c3ccc(F)cc3)cc2)S1 [Compound E-4] | 1200

The remaining lines, values behind:

Row | SMILES | IC50 (cPLA2) [nM] | IC50 [1] [nM]
12 | O=C1NC(=O)/C(=C/c2ccc(C(=O)NC[C@@H]3C[C@@H](OCc4ccccc4Cc4ccccc4)CN3C(=O)c3ccccc3C(=O)c3ccc(F)cc3)cc2)S1 [Compound A-32] | 67 | 570
13 | CN(Cc1ccccc1)c1ccccc1CO[C@@H]1C[C@@H](CNC(=O)c2ccc(/C=C3\SC(=O)NC3=O)cc2)N(C(=O)c2ccccc2C(=O)c2ccc(F)cc2)C1 [Compound A-43] | 52 | 560
14 | O=C1NC(=O)/C(=C/c2ccc(C(=O)NC[C@@H]3C[C@@H](OCc4ccccc4-c4ccc(F)cc4)CN3C(=O)c3ccccc3C(=O)c3ccc(F)cc3)cc2)S1 [Compound A-30] | 98 | 460
15 | O=C1NC(=O)/C(=C/c2ccc(C(=O)NC[C@@H]3C[C@@H](OCc4ccc5ccccc5c4-c4ccccc4)CN3C(=O)c3ccccc3C(=O)c3ccc(F)cc3)cc2)S1 [Compound A-39] | 25 | 330
16 | O=C1NC(=O)/C(=C/c2ccc(C(=O)NC[C@@H]3C[C@@H](OCc4ccccc4-c4cccs4)CN3C(=O)c3ccccc3C(=O)c3ccc(F)cc3)cc2)S1 [Compound A-37] | 73 | 280
17 | O=C1NC(=O)/C(=C/c2ccc(C(=O)NC[C@@H]3C[C@@H](OCc4ccccc4-c4ccccc4)CN3C(=O)c3ccccc3C(=O)c3ccccc3)cc2)S1 [Compound A-1] | 170 | 170
18 | O=C1NC(=O)/C(=C/c2ccc(C(=O)NC[C@@H]3C[C@@H](OCc4ccccc4-c4ccccc4)CN3C(=O)c3ccccc3C(=O)c3cccs3)cc2)S1 [Compound A-19] | 1000 | 160
19 | O=C1NC(=O)/C(=C/c2ccc(C(=O)NC[C@@H]3C[C@@H](OCc4ccccc4-c4ccsc4)CN3C(=O)c3ccccc3C(=O)c3ccc(F)cc3)cc2)S1 [Compound A-38] | 84 | 430
20 | O=C1NC(=O)/C(=C/c2ccc(C(=O)NC[C@@H]3C[C@@H](Oc4ccccc4-c4ccccc4)CN3C(=O)c3ccccc3C(=O)c3ccc(F)cc3)cc2)S1 [Compound A-67] | 69 | 390
21 | O=C1NC(=O)/C(=C/c2ccc(C(=O)NC[C@@H]3C[C@@H](OCc4ccccc4)CN3C(=O)c3ccccc3C(=O)c3ccccc3)cc2)S1 [Compound A-2] | 1200 | 730
22 | Cc1ccc(C(=O)c2ccccc2C(=O)N2C[C@H](OCc3ccccc3-c3ccccc3)C[C@H]2CNC(=O)c2ccc(/C=C3\SC(=O)NC3=O)cc2)cc1 [Compound A-21] | 430 | 230
23 | O=C1NC(=O)/C(=C/c2ccc(C(=O)NC[C@@H]3C[C@@H](Oc4ccccc4-c4ccc5ccccc5c4)CN3C(=O)c3ccccc3C(=O)c3ccc(F)cc3)cc2)S1 [Compound A-95] | 76 | 390
24 | O=C1NC(=O)/C(=C/c2ccc(C(=O)NC[C@@H]3C[C@@H](Oc4ccccc4-c4cccc5c4OCO5)CN3C(=O)c3ccccc3C(=O)c3ccc(F)cc3)cc2)S1 [Compound A-102] | 52 | 330
25 | O=C1NC(=O)C(=C/C=C/c2ccc(C(=O)NC[C@@H]3C[C@@H](OCc4ccccc4-c4ccccc4)CN3C(=O)c3ccccc3C(=O)c3ccc(F)cc3)cc2)S1 [Compound A-49] | 49 | 120
26 | O=C1NC(=O)/C(=C/c2ccc(C(=O)NC[C@@H]3C[C@@H](OCc4ccccc4-c4ccccc4)CN3C(=O)c3ccccc3C(=O)c3ccc(F)cc3)s2)S1 [Compound A-58] | 49 | 1600
27 | COc1cccc(-c2ccccc2C(C)C)c1O[C@@H]1C[C@@H](CNC(=O)c2ccc(/C=C3\SC(=O)NC3=O)cc2)N(C(=O)c2ccccc2C(=O)c2ccc(F)cc2)C1 [Compound A-120] | 29 | 740
28 | O=C1NC(=O)/C(=C/c2ccc(C(=O)NC[C@@H]3C[C@@H](Oc4cccc(-c5ccccc5)c4)CN3C(=O)c3ccccc3C(=O)c3ccc(F)cc3)cc2)S1 [Compound A-69] | 72 | 190
29 | COc1cccc(-c2ccccc2O[C@@H]2C[C@@H](CNC(=O)c3ccc(/C=C4\SC(=O)NC4=O)cc3)N(C(=O)c3ccccc3C(=O)c3ccc(F)cc3)C2)c1 [Compound A-98] | 59 | 440
30 | O=C1NC(=O)/C(=C/c2ccc(C(=O)NC[C@@H]3C[C@@H](OCc4ccccc4-c4ccccc4)CN3C(=O)CCC(=O)c3ccc(F)cc3)cc2)S1 [Compound A-6] | 4800 | 8900
31 | CN(c1ccccc1)c1cccc(O[C@@H]2C[C@@H](CNC(=O)c3ccc(/C=C4\SC(=O)NC4=O)cc3)N(C(=O)c3ccccc3C(=O)c3ccc(F)cc3)C2)c1 [Compound A-91] | 50 | 940
32 | O=C1NC(=O)/C(=C/c2ccc(C(=O)NC[C@@H]3C[C@@H](Oc4cccc5ccccc45)CN3C(=O)c3ccccc3C(=O)c3ccc(F)cc3)cc2)S1 [Compound A-73] | 110 | 100
33 | COc1cccc(-c2cccc3ccccc23)c1O[C@@H]1C[C@@H](CNC(=O)c2ccc(/C=C3\SC(=O)NC3=O)cc2)N(C(=O)c2ccccc2C(=O)c2ccc(F)cc2)C1 [Compound A-118] | 8 | 2200
34 | O=C1NC(=O)/C(=C/c2ccc(C(=O)NC[C@@H]3C[C@@H](Oc4ccccc4-c4ccccc4-c4ccccc4)CN3C(=O)c3ccccc3C(=O)c3ccc(F)cc3)cc2)S1 [Compound A-103] | 58 | 590
